Results on 14 molecules are retold here after patent publication US5891679A, “TNF-alpha muteins and a process for preparing them” (priority 1993, dated 1999).

Entries after “also recorded” stand apart in the source; their conditions may differ. Bridges are numbered along the chain shown (N, C = ends). The star is where a group is joined. Biotin = O=C1N[C@H]2[C@H](CS[C@H]2CCCCC(=O)*)N1

In assay [1] the test system is Trypanosoma brucei brucei. Kind of assay: In vitro trypanocidal assay, T. brucei brucei. The assay is classed as cell-based. The conditions noted are these: for effect on trypanocidal activity of TNF-α / tip peptide: preincubation or cotreatment with the substance; for % inhibition of trypanocidal activity: lectin 10 μg/ml; for Δ: % inhibition of trypanocidal activity by the addition of the p55 hTNFα receptor protein: p55 5 μg/ml. The procedure: The Trypanosoma brucei brucei AnTat 1.1 (EATRO 1125) pleomorphic bloodstream form was kindly provided to us by Dr. N. Van Meirvenne of the Institute for Tropical Medecine, Antwerp, Belgium, and the Trypanosoma brucei rhodesiense Trp 11 pleomorphic bloodstream form was kindly provided to us by Dr. E. Bajyana Songa (Dept. Molecular Biology, Free University of Brussels, Belgium)
After 5 h of incubation, the number of live (=moving) parasites was assessed (counting chamber) and compared the control wells in which only incubation medium was added to the trypanosomes. […] All treatments were done in quadruplicate and all reported in vitro trypanolysis experiments were repeated at least 3 times.

A further assay concerns L929 cells. Kind of assay: L929 cell killing (cytotoxic/cytolytic/tumoricidal) assay. It is filed as cell-based, mouse. The note with it: for effect on mTNF-α tumoricidal (cytolytic) activity: preincubation of mTNF-α with the substance; for Δ: % inhibition of tumoricidal activity by the addition of the p55 hTNFα receptor protein: p55 5 μg/ml. The procedure:
L929 fibrosarcoma cells were obtained from the Rega Institute, Leuven, Belgium.
After 18 h of culture at 37° C., viability of the cell cultures was assessed by dye uptake analysis. […] The plates were read spectrophotometrically at 577 nm with a Titertek multiscan MCC340 ELISA Reader (Flow Laboratories, McLean, Va.).

Assay [2] deals with human interleukin 8 (IL8). The assay can be described thus: IL8 production by hMVECb cells. It is filed as cell-based.
Assay [3] deals with human interleukin-6 (IL6). Kind of assay: IL6 production by hMVECb cells. The assay is classed as cell-based. The note with it: 24 hours. How it is done: Subsequently, the IL6 concentration in the supernatant of the cells was assessed using a commercially available hIL6 ELISA kit (Medgenix, Belgium).

Turning to `[Cl-].[Li+]` [LiCl, reference compound], in assay [1] (1 μg/ml of LiCl co-treatment), the “potentiation of trypanocidal effect of TNF-α” value turned out to be 100 fold. In assay [1] (T. brucei brucei, 5 h, data not shown), the mortality of trypanosomes entry was “by itself had no effect on the survival of the trypanosomes”. The “effect on trypanocidal activity of TNF-α / tip peptide” value (“effect … of TNF-α / tip peptide” for short) in assay [1] is reported as “synergistically potentiates the trypanocidal effect of mTNF-α”.

As to `CC(=O)N[C@H]1[C@H](O[C@H]2[C@H](O)[C@@H](NC(C)=O)C(O)O[C@@H]2CO)O[C@H](CO)[C@@H](O)[C@@H]1O` (stereo partly drawn) [N,N'-diacetylchitobiose, reference compound], the “effect on mTNF-α tumoricidal (cytolytic) activity” value (from here on “effect on mTNF-α tumoricidal”) with L929 cells (L929 cells) is “not the cytolytic activity; also recorded: not affected”. Besides, the “effect … of TNF-α / tip peptide” value in assay [1] was “potently inhibits the trypanocidal activity; also recorded: potent inhibition of the mTNF-α trypanocidal effect; also recorded: trypanocidal activity of the peptide can also be inhibited”.

Consider “Bio-GG-C - - - - APEGAE - - - - - C (Biotin-GGCAPEGAEC-NH2; cysteine pairing not given here) [mutpep 1]”, for which the trypanocidal activity entry in assay [1] (T. brucei brucei) was “lost their trypanocidal activity”.

On to “Bio-GG-C-TAEGAE-C (Biotin-GGCTAEGAEC-NH2; cysteine pairing not given here) [mutpep 2]”, for which the trypanocidal activity result in assay [1] (T. brucei brucei) is reported as “fully or even more active”.

Turning to “Bio-GG-C-TPAGAE-C (Biotin-GGCTPAGAEC-NH2; cysteine pairing not given here) [mutpep 3]”, in assay [1] (T. brucei brucei), the trypanocidal activity entry is on record as “lost their trypanocidal activity”.

Turning to “Bio-GG-C-TPEAAE-C (Biotin-GGCTPEAAEC-NH2; cysteine pairing not given here) [mutpep 4]”, in assay [1] (T. brucei brucei), the trypanocidal activity result is “fully or even more active”.

For the molecule “Bio-GG-C-TPEGAA-C (Biotin-GGCTPEGAAC-NH2; cysteine pairing not given here) [mutpep 5]”, the trypanocidal activity result in assay [1] (T. brucei brucei) is reported as “lost their trypanocidal activity”.

Take “Bio-GG-C-TPEGAE-C (Biotin-GGCTPEGAEC-NH2; cysteine pairing not given here) [subpep 1]”: the trypanocidal activity entry in assay [1] (T. brucei brucei) was “full trypanocidal activity”.

Turning to “Bio-GG-CGPKDTPEGAELKPWYC (Biotin-GGCGPKDTPEGAELKPWYC-NH2; disulfide 3-19 (inferred)) [mTNFα-tip]”, the “tumoricidal activity of tip peptide” value in the assay with L929 cells (L929 cells, similar dose response curve, data not shown) is given as “exerts no tumoricidal activity”. For the same molecule, in assay [1] (T. brucei brucei), the trypanocidal activity entry is recorded as “shows a trypanocidal activity”. For the same molecule, the trypanocidal specific activity in assay [1] (in vitro trypanocidal assay, average specificity) is reported as 4×10^2 -4×10^3 U/mg of peptide.

As for Bio-GG-CGQRETPEGAEAKPWYC [hTNFα-tip], in assay [1] (T. brucei brucei), the trypanocidal activity result was “shows similar results”.

On to Bio-GG-EGAELKPWY [subpep 2], for which the trypanocidal activity result in assay [1] (T. brucei brucei) is given as “strongly reduced trypanocidal activity”.

On to “GNA: lectin Galanthus nivalis agglutinin [reference compound]”, for which the “effect on mTNF-α tumoricidal” value with L929 cells (L929 cells) is recorded as “none of these lectins had any effect”. Besides, the “% inhibition of trypanocidal activity” value in assay [1] (mTNF-α 1.000 pg/ml) is 5 ± 3%; in assay [1] (mTNF-α 10.000 pg/ml), 5 ± 2%; in assay [1] (mTNF-α 100 pg/ml) it was 0 ± 1%; in assay [1] (mTNF-α 100.000 pg/ml), 3 ± 2%; in assay [1] (mTNF-α 1.000.000 pg/ml), 2 ± 1%. Also, in assay [1], the “effect … of TNF-α / tip peptide” value is “did not have any effect”.

B1: P106A mTNF-α: Pro106 of mTNF-α is changed to an Ala residue (protein)
chain: LRSSSQNSSDKPVAHVVANHQVEEQLEWLSQRANALLANGMDLKDNQLVVPADGLYLVYSQVLFKGQGCPDYVLLTHTVSRFAISYQEKVNLLSAVKSPCPKDTAEGAELKPWYEPIYLGGVFQLEKGDQLSAEVNLPKYLDFAESGQVYFGVIAL
Regarding B1, the IL8 concentration in assay [2] (333 pg/ml, experiment 1, 24 hours) was 300 pg/mL; in assay [2] (333 pg/ml, experiment 2, 24 hours), 400 pg/mL; in assay [2] (1000 pg/ml, experiment 1, 24 hours) it was 1100 pg/mL; in assay [2] (1000 pg/ml, experiment 2, 24 hours), 1500 pg/mL; in assay [2] (1666 pg/ml, experiment 1, 24 hours), 250 pg/mL; in assay [2] (1666 pg/ml, experiment 2, 24 hours), 900 pg/mL. The “fold less IL8 induced than wild type TNF-α” value in assay [2] (hMVECb, 24 hours) is “about 3 fold”. Moreover, the “IL8 induction compared with wild type” value in assay [2] (human endothelial brain cells) is “induce consistently less human interleukin 8 (IL8)”. In addition, the IL6 concentration in assay [3] (333 pg/ml, experiment 1) worked out at 720 pg/mL; in assay [3] (333 pg/ml, experiment 2), 1300 pg/mL; in assay [3] (1000 pg/ml, experiment 1), 560 pg/mL; in assay [3] (1000 pg/ml, experiment 2), 750 pg/mL; in assay [3] (1666 pg/ml, experiment 1) it was 800 pg/mL; in assay [3] (1666 pg/ml, experiment 2), 1300 pg/mL.

B2: soluble p55 hTNF-α receptor: soluble p55 hTNF-α receptor protein (protein)
chain: DSVCPQGKYIHPQNNSICCTKCHKGTYLYNDCPGPGQDTDCRECESGSFTASENHLRHCLSCSKCRKEMGQVEISSCTVDRDTVCGCRKNQYRHYWSENLFQCFNCSLCLNGTVHLSCQEKQNTVCTCHAGFFLRENECVSCSNCKKSLECTKLCLPQIEN
For the molecule B2, the “Δ: % inhibition of tumoricidal activity by the addition of the p55 hTNFα receptor protein” value came out at 100 ± 5% in the assay with L929 cells (mTNF-α 100 pg/ml), 100 ± 4% in the assay on L929 cells (mTNF-α 1000 pg/ml) and 5 ± 2% in the assay with L929 cells (mTNF-α 10000 pg/ml). For the same molecule, the “effect on mTNF-α tumoricidal” value with L929 cells (L929 cells) is given as “potently inhibits the mTNF-α tumoricidal activity”. Further, the “Δ: % inhibition of trypanocidal activity by the addition of the p55 hTNFα receptor protein” value in assay [1] (mTNF-α 100 pg/ml) came out at 15 ± 5%; in assay [1] (mTNF-α 1000 pg/ml), 10 ± 4%; in assay [1] (mTNF-α 10000 pg/ml), 7 ± 5%. Also, in assay [1], the “effect … of TNF-α / tip peptide” value is reported as “hardly influenced”.
